Assay results: patent US4458079A, “Sulfur-containing imidazoles” (Bristol-Myers Company, priority 1980, dated 1984)
Values after ≈ are worked out from the molar mass of the structure shown.

Legend:
Format in all cases: cell-based
Candida tropicalis [1] = test: MIC in Sabouraud broth (broth dilution); details: strain A 15051, 24 hours at 37°, read-out: Minimum Inhibitory Concentration (MIC)
Excerpt: (§1) The antifungal activity of some of the compounds of Formula I against a number of human and animal pathogenic fungi is given in Table I for either a liquid medium (Sabouraud broth) or an agar medium (Sabouraud broth plus 1% ionagar). Two-fold serial dilutions were made with Sabouraud's liquid medium from stock solutions of the test compounds, usually in dimethyl sulfoxide, N,N-dimethylformamide or water. The Minimum Inhibitory Concentrations (MIC's), which were considered to be the minimum concentrations of the test compounds in micrograms per milliliter which prevent grossly detectable growth of the test organisms, were then determined after inoculation of the medicated broths with the test organisms, and incubation at the appropriate temperature and for the appropriate time interval. Candida species were incubated for 24 hours at 37°, while the dermatophytes Trichophyton rubrum, Trichophyton mentagrophytes and Microsporum canis were incubated for five days at 28°. The agar dilution assay was essentially the same as the broth dilution assay except that 1% inoagar was added to the Sabouraud broth.

Candida albicans [2] = test: MIC in Sabouraud broth (broth dilution); details: 24 h, read-out: Minimum Inhibitory Concentration (MIC)
Excerpt: as §1

Trichophyton rubrum [3] = test: MIC in Sabouraud broth (broth dilution); details: 120 h, strain A 22789, five days at 28°, read-out: Minimum Inhibitory Concentration (MIC)
Excerpt: as §1

Candida krusei [4] = test: MIC in Sabouraud broth (broth dilution); details: Pichia kudriavzevii, strain A 15052, 24 hours at 37°, read-out: Minimum Inhibitory Concentration (MIC)
Excerpt: as §1

Microsporum canis [5] = test: MIC in Sabouraud broth (broth dilution); details: 120 h, read-out: Minimum Inhibitory Concentration (MIC)
Excerpt: as §1

[6] = system: Trichophyton mentagrophytes; test: MIC in Sabouraud broth (broth dilution); details: 120 h, strain A 9870, five days at 28°, read-out: Minimum Inhibitory Concentration (MIC)
Excerpt: as §1

Candida tropicalis [7] = test: MIC in Sabouraud broth plus 1% ionagar (agar dilution); details: strain A 15051, 24 hours at 37°, read-out: Minimum Inhibitory Concentration (MIC)
Excerpt: as §1

Candida albicans [8] = test: as above; details: 24 h, read-out: Minimum Inhibitory Concentration (MIC)
Excerpt: as §1

Trichophyton rubrum [9] = test: as above; details: 120 h, strain A 22789, five days at 28°, read-out: Minimum Inhibitory Concentration (MIC)
Excerpt: as §1

Candida krusei [10] = test: as above; details: Pichia kudriavzevii, strain A 15052, 24 hours at 37°, read-out: Minimum Inhibitory Concentration (MIC)
Excerpt: as §1

Microsporum canis [11] = test: as above; details: 120 h, read-out: Minimum Inhibitory Concentration (MIC)
Excerpt: as §1

[12] = system: Trichophyton mentagrophytes; test: as above; details: 120 h, strain A 9870, five days at 28°, read-out: Minimum Inhibitory Concentration (MIC)
Excerpt: as §1

[13] = strain A 15049, 24 hours at 37°
[14] = strain A 9872, five days at 28°
[15] = strain A 22494, five days at 28°

Row | SMILES | MIC (Candida tropicalis [1]) | MIC (Candida albicans [2]; strain A 1505, 24 hours at 37°) | MIC (Candida albicans [2]; strain A 9540, 24 hours at 37°) | MIC (Candida albicans [2]; [13]) | MIC (Trichophyton rubrum [3]) | MIC (Candida krusei [4]) | MIC (Microsporum canis [5]; [14]) | MIC (Microsporum canis [5]; [15]) | MIC [6] | MIC (Candida tropicalis [7]) | MIC (Candida albicans [8]; strain A 1505, 24 hours at 37°) | MIC (Candida albicans [8]; strain A 9540, 24 hours at 37°) | MIC (Candida albicans [8]; [13]) | MIC (Trichophyton rubrum [9]) | MIC (Candida krusei [10]) | MIC (Microsporum canis [11]; [14]) | MIC (Microsporum canis [11]; [15]) | MIC [12]
1 | Cc1ccc(CSC(Cn2ccnc2)SCc2ccc(C)cc2)cc1.Cl [2(j), 1-[2,2-bis(4-methylbenzylthio)ethyl]-1H-imidazole hydrochloride] | > 16 µg/mL | 4 µg/mL | 4 µg/mL | 4 µg/mL | 0.063 µg/mL | 8 µg/mL | 0.063 µg/mL | 0.063 µg/mL | 0.063 µg/mL | – | – | – | – | – | – | – | – | –
2 | Clc1ccc(CSC(Cn2ccnc2)SCc2ccc(Cl)cc2Cl)c(Cl)c1 [2(g), 1-[2,2-bis(2,4-dichlorobenzylthio)ethyl]-1H-imidazole] | > 16 µg/mL | > 16 µg/mL | > 16 µg/mL | > 16 µg/mL | 0.063 µg/mL (≈ 0.132 µM) | > 16 µg/mL | 0.032 µg/mL (≈ 0.0669 µM) | 0.063 µg/mL (≈ 0.132 µM) | 0.063 µg/mL (≈ 0.132 µM) | – | – | – | – | – | – | – | – | –
3 | Cl.Clc1ccc(CSC(Cn2ccnc2)SCc2ccc(Cl)s2)s1 [2(p), 1-[2,2-bis(5-chloro-2-thienylmethylthio)ethyl]-1H-imidazole hydrochloride] | – | – | – | – | – | – | – | – | – | 125 µg/mL | 4 µg/mL | 4 µg/mL | 4 µg/mL | 0.5 µg/mL | 8 µg/mL | 0.25 µg/mL | 0.032 µg/mL | 0.5 µg/mL
4 | Cl.Clc1ccc(CSC(Cn2ccnc2)SCc2ccc(Cl)cc2)cc1 [Example 1, 1-[2,2-Bis(4-chlorobenzylthio)ethyl]-1H-imidazole Hydrochloride] | > 16 µg/mL | 2 µg/mL | 1 µg/mL | 2 µg/mL | 0.063 µg/mL | 0.5 µg/mL | 0.032 µg/mL | 0.063 µg/mL | 0.032 µg/mL | – | – | – | – | – | – | – | – | –
5 | Clc1cccc(Cl)c1CSC(Cn1ccnc1)SCc1c(Cl)cccc1Cl.O=C(O)C(=O)O [2(h), 1-[2,2-bis(2,6-dichlorobenzylthio)ethyl]-1H-imidazole hydrogen oxalate] | – | – | – | – | – | – | – | – | – | 63 µg/mL | 16 µg/mL | 8 µg/mL | 16 µg/mL | 0.5 µg/mL | 32 µg/mL | 1 µg/mL | 0.25 µg/mL | 1 µg/mL
6 | Cl.Clc1ccc(CSC(Cn2ccnc2)Sc2ccc(Cl)cc2)cc1 (stereo not drawn) [Example 5, 1-[2-(4-Chlorobenzylthio)-2-(4-chlorophenylthio)ethyl]-1H-imidazole Hydrochloride] | – | – | – | – | – | – | – | – | – | 32 µg/mL | 4 µg/mL | 4 µg/mL | 4 µg/mL | 0.25 µg/mL | 4 µg/mL | 0.25 µg/mL | 0.032 µg/mL | 0.063 µg/mL
7 | CSc1ccc(CSC(Cn2ccnc2)SCc2ccc(SC)cc2)cc1.Cl [2(l), 1-[2,2-bis(4-methylthiobenzylthio)ethyl]-1H-imidazole hydrochloride] | > 16 µg/mL | > 16 µg/mL | > 16 µg/mL | > 16 µg/mL | 0.063 µg/mL | 8 µg/mL | 0.063 µg/mL | 0.13 µg/mL | 0.063 µg/mL | – | – | – | – | – | – | – | – | –
